Experimental findings from ChEMBL document CHEMBL6153084, “The development of α, β-unsaturated lactam-based andrographolide derivatives as anti-gastric cancer agents with the ability of inhibiting the ERK/c-Fos/Jun pathway” (Eur J Med Chem, 2025) are described below.

The structures appear in SMILES notation.

The assay concerns MGC-803. Put plainly: Antiproliferative activity against human MGC-803 cells assessed as inhibition of cell growth incubated for 24 to 72 hrs by MTT assay. The class given is functional, cell-based.
Regarding `C=C1CC[C@@H]2[C@](C)(CO)[C@H](O)CC[C@@]2(C)[C@@H]1/C=C/C(=C/C(=O)Cc1ccc(Cl)cc1)C(=O)N(C)C`, the IC50 (usually the midpoint of a concentration-inhibition curve) is more than 50 µM.
Next, `C=C1CC[C@@H]2[C@](C)(CO)[C@H](O)CC[C@@]2(C)[C@@H]1/C=C/C(=C/C(=O)Cc1ccc(Cl)cc1)C(=O)N1CCN(CC)CC1`: more than 50 µM; `C=C1CC[C@@H]2[C@](C)(CO)[C@H](O)CC[C@@]2(C)[C@@H]1/C=C/C1=CC(=C/c2cc(OC)c(OC)c(OC)c2)/NC1=O`: 7.27 µM; `C=C1CC[C@@H]2[C@](C)(CO)[C@H](O)CC[C@@]2(C)[C@@H]1/C=C/C1=CC(=C\c2ccc(C)cc2)/NC1=O`: 14.7 µM.
As to `C=C1CC[C@@H]2[C@](C)(CO)[C@H](O)CC[C@@]2(C)[C@@H]1/C=C/C(=C/C(=O)Cc1ccc(Cl)cc1)C(=O)N1CCOCC1`, the IC50 is more than 50 µM.
`C=C1CC[C@@H]2[C@](C)(CO)[C@H](O)CC[C@@]2(C)[C@@H]1/C=C/C1=CC(=C\c2ccccc2)/NC1=O`: the IC50 amounted to 17.6 µM.
`C=C1CC[C@@H]2[C@](C)(CO)[C@H](O)CC[C@@]2(C)[C@@H]1/C=C/C1=CC(=C/c2ccc([N+](=O)[O-])c(Cl)c2)/NC1=O`: the IC50 was more than 50 µM.
Consider `C=C1CC[C@@H]2[C@](C)(CO)[C@H](O)CC[C@@]2(C)[C@@H]1/C=C/C1=CC(=C/c2ccccc2Cl)/NC1=O`, for which the IC50 was found to be 1.6 µM.
As for `C=C1CC[C@@H]2[C@](C)(CO)[C@H](O)CC[C@@]2(C)[C@@H]1C/C=C1/C(=O)OC[C@H]1O` [ANDROGRAPHOLIDE], the IC50 was 31.8 µM.
Turning to `C=C1CC[C@@H]2[C@](C)(CO)[C@H](O)CC[C@@]2(C)[C@@H]1/C=C/C1=CC(=C\c2ccc(Cl)cc2)/NC1=O`, the IC50 is 19.2 µM.
For `C=C1CC[C@@H]2[C@](C)(CO)[C@H](O)CC[C@@]2(C)[C@@H]1/C=C/C1=CC(=C/c2ccc(Cl)cc2Cl)/NC1=O`, the IC50 is 8.52 µM.
The value for `C=C1CC[C@@H]2[C@](C)(CO)[C@H](O)CC[C@@]2(C)[C@@H]1/C=C/C1=CC(=C/c2cccc3ccccc23)/NC1=O` was 1.34 µM.
As to `C=C1CC[C@@H]2[C@](C)(CO)[C@H](O)CC[C@@]2(C)[C@@H]1/C=C/C1=CC(=C/c2ccc3ccccc3c2)/NC1=O`, the IC50 worked out at 2.43 µM.
On to `C=C1CC[C@@H]2[C@](C)(CO)[C@H](O)CC[C@@]2(C)[C@@H]1/C=C/C1=CC(=C/c2ccc(N(C)C)cc2)/NC1=O`, for which the IC50 is 18.1 µM.
`C=C1CC[C@@H]2[C@](C)(CO)[C@H](O)CC[C@@]2(C)[C@@H]1/C=C/C1=CC(=C/c2ccc(C(C)(C)C)cc2)/NC1=O`: the IC50 is 19.5 µM.
Turning to `C=C1CC[C@@H]2[C@](C)(CO)[C@H](O)CC[C@@]2(C)[C@@H]1/C=C/C1=CC(=C/c2ccc(F)cc2)/NC1=O`, the IC50 is more than 50 µM.
The value for `C=C1CC[C@@H]2[C@](C)(CO)[C@H](O)CC[C@@]2(C)[C@@H]1/C=C/C1=CC(=C/c2cccc(C)c2C)/NC1=O` was 14.1 µM; that for `C=C1CC[C@@H]2[C@](C)(CO)[C@H](O)CC[C@@]2(C)[C@@H]1/C=C/C1=CC(=C/c2cccc(Cl)c2)/NC1=O` was more than 50 µM.
The value for `C=C1CC[C@@H]2[C@](C)(CO)[C@H](O)CC[C@@]2(C)[C@@H]1/C=C/C(=C/C(=O)Cc1ccc(Cl)cc1)C(=O)N1CCN(C(=O)OC(C)(C)C)CC1` was 15.8 µM; that for `C=C1CC[C@@H]2[C@](C)(CO)[C@H](O)CC[C@@]2(C)[C@@H]1/C=C/C(=C/C(=O)Cc1ccc(Cl)cc1)C(=O)N1CCNCC1` was 37.8 µM; that for `C=C1CC[C@@H]2[C@](C)(CO)[C@H](O)CC[C@@]2(C)[C@@H]1/C=C/C1=CC(=C2CCCCC2)NC1=O` was more than 50 µM.
For `C=C1CC[C@@H]2[C@](C)(CO)[C@H](O)CC[C@@]2(C)[C@@H]1/C=C/C1=CC(=C/C2CCCCC2)/NC1=O`, the IC50 was 15.7 µM.
Turning to `C=C1CC[C@@H]2[C@](C)(CO)[C@H](O)CC[C@@]2(C)[C@@H]1/C=C/C(=C/C(=O)Cc1ccc(Cl)cc1)C(=O)N1CCN(CCO)CC1`, the IC50 is more than 50 µM.
The value for `C=C1CC[C@@H]2[C@](C)(CO)[C@H](O)CC[C@@]2(C)[C@@H]1/C=C/C1=CC(=C(C)C)NC1=O` was more than 50 µM; that for `C=C1CC[C@@H]2[C@](C)(CO)[C@H](O)CC[C@@]2(C)[C@@H]1/C=C/C1=CC(=C/c2cccc(C)c2)/NC1=O` was 4.56 µM.
Consider `C=C1CC[C@@H]2[C@](C)(CO)[C@H](O)CC[C@@]2(C)[C@@H]1/C=C/C1=CC(=C/c2ccccc2)/NC1=O`, for which the IC50 turned out to be 9.56 µM.
Next, `C=C1CC[C@@H]2[C@](C)(CO)[C@H](O)CC[C@@]2(C)[C@@H]1/C=C/C1=CC(=C/c2cccnc2)/NC1=O`: 12.3 µM.
As to `C=C1CC[C@@H]2[C@](C)(CO)[C@H](O)CC[C@@]2(C)[C@@H]1/C=C/C(=C/C(=O)Cc1ccc(Cl)cc1)C(=O)N1CCCCC1`, the 50% inhibitory concentration (IC50) is more than 50 µM.
Regarding `C=C1CC[C@@H]2[C@](C)(CO)[C@H](O)CC[C@@]2(C)[C@@H]1/C=C/C1=CC(=C/c2ccccc2C)/NC1=O`, the IC50 was 1.76 µM.
Consider `C=C1CC[C@@H]2[C@](C)(CO)[C@H](O)CC[C@@]2(C)[C@@H]1/C=C/C1=CC(=C/c2ccc(Br)cc2)/NC1=O`, for which the IC50 was 5.3 µM.
In the case of `C=C1CC[C@@H]2[C@](C)(CO)[C@H](O)CC[C@@]2(C)[C@@H]1/C=C/C1=CC(=C/c2ccc(Cl)cc2)/NC1=O`, the IC50 was 6.05 µM.
As to `C=C1CC[C@@H]2[C@](C)(CO)[C@H](O)CC[C@@]2(C)[C@@H]1/C=C/C(=C/C(=O)Cc1ccc(Cl)cc1)C(=O)N1CCN(C)CC1`, the IC50 was more than 50 µM.
Next, `C=C1CC[C@@H]2[C@](C)(CO)[C@H](O)CC[C@@]2(C)[C@@H]1/C=C/C(=C/C(=O)Cc1ccc(Cl)cc1)C(=O)N1CCCC1`: more than 50 µM; `C=C1CC[C@@H]2[C@](C)(CO)[C@H](O)CC[C@@]2(C)[C@@H]1/C=C/C1=CC(=C/c2ccc(F)c(F)c2)/NC1=O`: more than 50 µM.
